Laboratory results taken from PubChem BioAssay (NCI).
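Interpolation was linear, between the two tested concentrations surrounding the appropriate level; five concentrations were tested over 48 hours in 96-well plates. The concentration for 50% growth inhibition is given as GI50. TGI: total growth inhibition.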

Tests used:
Experiment in all cases: DTP human tumour cell line panel, 48 h
HOP-62 NSCLC = system: HOP-62 NSCLC
PC-3 prostate = system: PC-3 prostate
LOX IMVI melanoma = system: LOX IMVI melanoma
HCC-2998 colon = system: HCC-2998 colon
EKVX NSCLC = system: EKVX NSCLC
KM12 colon = system: KM12 colon
SNB-19 CNS = system: SNB-19 CNS
SK-MEL-2 melanoma = system: SK-MEL-2 melanoma
OVCAR-4 ovarian = system: OVCAR-4 ovarian
NCI-H522 lung = system: NCI-H522 lung

| SMILES | GI50 (HOP-62 NSCLC) [µM] | TGI (HOP-62 NSCLC) [µM] | GI50 (PC-3 prostate) [µM] | TGI (PC-3 prostate) [µM] | GI50 (LOX IMVI melanoma) [µM] | TGI (LOX IMVI melanoma) [µM] | GI50 (HCC-2998 colon) [µM] | TGI (HCC-2998 colon) [µM] | GI50 (EKVX NSCLC) [µM] | TGI (EKVX NSCLC) [µM] | GI50 (KM12 colon) [µM] | TGI (KM12 colon) [µM] | GI50 (SNB-19 CNS) [µM] | TGI (SNB-19 CNS) [µM] | GI50 (SK-MEL-2 melanoma) [µM] | TGI (SK-MEL-2 melanoma) [µM] | GI50 (OVCAR-4 ovarian) [µM] | TGI (OVCAR-4 ovarian) [µM] | GI50 (NCI-H522 lung) [µM] | TGI (NCI-H522 lung) [µM] |
| --- | --- | --- | --- | --- | --- | --- | --- | --- | --- | --- | --- | --- | --- | --- | --- | --- | --- | --- | --- | --- |
| COc1cc(/C=C/[N+](=O)[O-])cc(Br)c1OC | 3.32 | 10.1 | 3.5 | 13.2 | 0.899 | 2.18 | 1.71 | 3.15 | 3.32 | 14.6 | 3 | 10.1 | 6.93 | 19.2 | 2.67 | 5.71 | 7.65 | 20.8 | 0.816 | 2.83 |
| C[C@@H]1O[C@@H](OC[C@H]2O[C@@H](OCCc3ccc(O)c(O)c3)[C@H](O)[C@@H](O)[C@@H]2OC(=O)/C=C/c2ccc(O)c(O)c2)[C@H](O)[C@H](O)[C@H]1O | > 100 | > 100 | > 100 | > 100 | > 100 | > 100 | 69.3 | > 100 | > 100 | > 100 | > 100 | > 100 | > 100 | > 100 | > 100 | > 100 | > 100 | > 100 | > 100 | > 100 |
| CCN1C(=O)N(CC)C2C1NN=c1s/c(=C3\C(=O)N(CCc4ccccc4)c4ccccc43)c(=O)n12 (stereo not given) | 0.697 | 9.97 | 0.415 | > 21.8 | 0.527 | 4.94 | 1.15 | > 25 | 0.641 | > 100 | 0.38 | 11.2 | 0.845 | 19.6 | 1.26 | 12.3 | 1.13 | > 100 | 0.337 | 3.95 |
| O=C(Nc1cccc(Nc2ncc(Br)c(NCCc3cnc[nH]3)n2)c1)N1CCCC1 | 2.35 | 14.7 | 3.2 | 45.6 | 1.11 | 7.4 | 9.11 | 24.3 | 6.07 | 38.1 | 0.869 | 11.5 | 9.02 | > 61.4 | 5.31 | 19.4 | 3.71 | 31.1 | 11.5 | 27.6 |
| N#Cc1c(N)[nH]c2ccc(Sc3ccccc3)cc12 |  | 20.5 |  | 15.8 |  | 7.56 |  | 17.3 |  | 11.7 |  | 10.7 |  | 17.2 |  | 17.5 |  | 21.6 |  | 3.21 |
| Nc1ccc(-c2nc3ccccc3[nH]2)c2ccccc12 | 6.16 | > 100 | 6.49 | > 100 | 4.97 | 48.1 | 2.46 | 10.5 | 14.5 | > 100 | 1.92 | 16.1 | 3.57 | > 100 | 14.2 | > 100 | 8.26 | > 72.5 | 3.14 | 17.1 |
| O=C(Oc1cccnc1)c1ccsc1Nc1ccnc(C(F)(F)F)c1 | 25 | > 100 | 9.24 | 73.2 | 3.19 | > 100 | 11 | 24 | 34.2 | > 100 | 3.38 | 10.3 | 20.7 | > 100 | 4.19 | > 100 | 5.21 | > 100 | 2.36 | 8.36 |
| CC(C)=CCC/C(C)=C/CC/C(C)=C/CC/C=C(\C)CC/C=C(\C)CCC(=O)Nc1ccn(C2OC(CO)C(O)C2(F)F)c(=O)n1 (stereo not given) | 0.0507 | 2.38 | 1.19 | 20.5 | 0.347 | 14.5 | 0.9 | 23 | 0.112 | 17 | 0.181 | 18.1 | 0.0245 | 11.7 | 0.0183 | 1.28 | 1.91 | 8.67 | 0.0854 | 5.83 |
| CN1CCC(n2cnc(-c3ccc(F)cc3)c2-c2ccnc(N)n2)CC1 | 9.44 | > 25 | 9.28 | > 25 | 6.95 | > 25 | 8.98 | > 25 | 10.3 | > 25 | 8.64 | > 25 | 10.3 | > 25 | > 25 | > 25 | 7.04 | > 25 | 8.57 | > 25 |
| CSC(=S)N/N=C(\C)c1cccc(C)n1 |  | 6.98 |  | 36.3 |  | 15.1 |  | 30.4 |  | > 43.3 |  | 42.6 |  | > 100 |  | 16.5 |  | 19.5 |  | 3.01 |
